Tests used:
[1] = Spreadability of oil drops on the surface of water; type: physicochemical
Method: 1. A petri dish of 13.5 cm diameter was filled to the brim with unheated water.
2. 0.3 ml of Olive or Sunflower oil was dropped onto the surface from a standardised height (30 cm) using a 1 ml pipette.
3. The resultant droplets were photographed and measured 30 sec after impact.
4. For increased reliability, the procedure was repeated 5 times.
5. Steps 1-4 were then repeated for Olive and Sunflower oils with or without carotenoids in different concentrations.

Melting time at 37° C. = type: physicochemical
Method: Approximately 20 mg of butter, or pork fat, or beef fat, or cocoa butter, or chocolate, with or without certain concentrations of carotenoids, were placed on the surface of the laboratory slides and incubated at 37° C. in a laboratory incubator (TLK39).
Results presented in FIG. 15 show three different carotenoids—lycopene, lutein and astaxanthin, can reduce, albeit to a different degree, the melting time of dark chocolate regardless of its tempering protocols: Protocol I—28° C., Protocol II—29° C., Protocol III—30° C.

[2] = test system: B10.MLM cells (alveolar macrophages); experiment: Transmission electron microscopy of cells; type: cell-based; conditions: 48 hours
Method: B10.MLM cells were cultured with or without lycopene for 48 hours and then harvested from the plates with trypsin-versene solution. Cell pellets obtained by centrifugation for 10 min at 1500 r.p.m. (Rotanta 460R; Hettich) were fixed with Ito-Karnovsky fixative solution, followed by post-fixation with OsO4 and treatment with aqueous uranyl acetate to provide contrast. The specimens were subsequently dehydrated in an ascending series of alcohol concentrations (50, 70, 96 and 100% ethanol), infiltrated with a 1:1 (v/v) mixture of LR White resin and 100% ethanol for 1 h and in a pure resin for 12 h at 4° C. Resin polymerization was performed at 56° C. for 24 h. Ultrathin sections were prepared, treated with a lead solution to provide contrast (Reynolds, 1963) and analysed using a JEOL 100B transmission electron microscope with an accelerating voltage of 80 kV (Jeol, Japan).

## CC(C)=CCC/C(C)=C/C=C/C(C)=C/C=C/C(C)=C/C=C/C=C(C)/C=C/C=C(C)/C=C/C=C(\C)CCC=C(C)C [Lycopene]
[1]; 1 molecule of lycopene within about 120,000 molecules of oil lipids
  Diameter of spread lipid drops relative to intact oil: 6-8 fold
[1]; sunflower oil
  Increase of spreadability on the surface of the water: 23 fold
Melting time at 37° C.
  Melting time of dark chocolate: 8 min
[2]
  Mitochondrial structures: significantly increased both in size and their numbers

Reference: patent US20210023223A1, “HYDROCARBON / LIPID - CAROTENOID COMPLEXES” (IP SCIENCE LIMITED, priority 2018, published 2021)
